Experimental data as given in article PMC10252989, “Significance of Astragaloside IV from the Roots of Astragalus mongholicus as an Acetylcholinesterase Inhibitor—From the Computational and Biomimetic Analyses to the In Vitro and In Vivo Studies of Safety” (International Journal of Molecular Sciences, 2023).

Tests used:
[1] = biological target: acetylcholinesterase (AChE) enzyme (Homo sapiens, UniProt P22303); experiment: TLC bioautography assay for inhibition of acetylcholinesterase; format: biochemical; conditions: amount of compound per spot
Method: In this study, the reference compounds of astragalosides II (A II), III (A III) and IV (A IV) at different concentrations were injected into the normal phase TLC plate covered with silica gel. Each experiment was repeated three times and the average values of the obtained peak areas corresponding to different injections of pure astragalosides were taken for the calculation of IC50 values of the saponins. For the three astragalosides: II, III and IV the following calibration curve equations were obtained: y = 70,773,628.9063x − 62,644.2995 (R^2 = 0.9732), y = 33,106,972.8125x − 67,429.4097 (R^2 = 0.9771), and y = 48,308,195.3125x + 3538.3021 (R^2 = 0.9981), respectively.
The TLC-bioautography method was used to determine the IC50 values of the tested saponins. Owing to the application of this technique, bright spots of active compounds were registered against the dark background. The TLC chromatogram was obtained on aluminium-covered normal phase TLC plates (Merck, Darmstadt, Germany, silica gel 60 F254).
To calculate the strength of the astragalosides, the IC50 values were determined for astragalosides II, III, and IV. For this purpose, 1 mg/mL solutions of all pure compounds were sprayed on the TLC plate using the Camag Linomat 5 (Muttenz, Switzerland) with the decreasing volumes in the range of 0.002–0.008 mg of compounds per spotevery 1 cm.
Later the TLC plate was subjected to the TLC-bioautography assay towards inhibitory properties against the AChE enzymeas described previously. Briefly, first the TLC plates were sprayed with asolution of 30 mg/20 mL of 1-naphtyl acetate. […] The chromatogram was analysed by the WinCats (v. 1.4, Camag) program and the peak areas of every spot were determined. Based on the numerical values obtained corresponding to the intensity of discoloured zones measured with the peak areas, the calibration curves were determined and the IC50 values were calculated as half of the peak area from the biggest spot that stayedwithin the linearity range area.

[2] = Biomimetic HPLC lipophilicity determination, cholesterol-bound column; format: physicochemical; conditions: CHOL column; for s (slope of Soczewiński-Wachtmeister equation): ACN-phosphate buffer pH 7.4; for logkw: ACN-phosphate buffer pH 7.4, retention factor extrapolated to pure water
Source text: (§1) To determine lipophilicity of the tested astragalosides, the biomimetic-High Performance Liquid Chromatography (HPLC) systems with a cholesterol-bound (CHOL) stationary phase as well as the Immobilized Artificial Membrane (IAM) column were used. These stationary phases have pseudomembrane properties and therefore are widely applied in chromatographic practice to determine lipophilicity of various groups of compounds, including newly synthesized ones.
(§2) Based on the Soczewiński–Wachtmeister Equation (1), the logarithms of retention factors extrapolated to pure water (logkw) values were calculated. These values can be considered as an alternative to the n-octanol/water partition coefficient recognized as the lipophilicity descriptor [31]. logk = logkw − sφ(1) where logk is the logarithm of the retention factor in the mixed effluent systems; φ is the volume fraction of organic modifier in the mobile phase; s is the slope characteristic of a given solute in the chromatographic system.
(§3) The Shimadzu Vp liquid chromatographic system (Shimadzu, Kyoto, Japan) equipped with an LC 10AT pump, an SPD 10A UV-Vis detector, an SCL 10A system controller, a CTO-10 AS chromatographic oven and a Rheodyne injector valve with a 20 µL loop was applied in the HPLC measurements.
(§4) The solutions of the isolated A IV as well as pharmacopoeial standards of A I–A III were prepared in methanol (Merck, Darmstadt, Germany; p.a.) at a concentration of 1 mg/mL. […] The optimization process of the chromatographic separation was made before the experiment. The flow rate of the mobile phases was established to be 1 mL/min and the temperature was set at 20 °C. The tested compounds were detected with UV light at λ = 203 nm.
(§5) The IAM.PC.DD2 column (IAM; 100 × 4.6 mm i.d., 10 µm; Regis Technologies, Morton Grove, IL, USA) and cholesterol-bonded (CHOL; Cosmosil; 75 × 2 mm i.d., 2.5 µm; Genore, Warsaw, Poland) were used as the stationary phase while the buffered solutions of acetonitrile (ACN) were used as mobile phases. In each measurement the composition of the mobile phases was: 0.3; 0.4; 0.5; 0.6 v/v ACN-buffer. The buffer was prepared from solutions of both Na2HPO4 (0.02 mol/dm^3) and citric acid (0.01 mol/dm^3).
(§6) The dead-time values were measured from the citric acid peaks. All the reported logarithms of the retention factors were measured three times.

[3] = Biomimetic HPLC lipophilicity determination, IAM column; format: physicochemical; conditions: for s (slope of Soczewiński-Wachtmeister equation): ACN-phosphate buffer pH 7.4; for logkw: ACN-phosphate buffer pH 7.4, retention factor extrapolated to pure water
Source text: as §1, §2, §3, §4, §5, §6

[4] = test system: SH-SY5Y human neuroblastoma cell line; experiment: In vitro cytotoxicity test (MTT); format: cell-based; conditions: for cell viability versus control group (saline): 24 h, MTT
Method: The SH-SY5Y human neuroblastoma cell lines (ATCC CRL-2266) were maintained in a1:1 mixture of Eagle’s Minimum Essential Medium and F12 Medium, supplemented with 10% (v/v) of foetal bovine serum. The cells were grown at 37 °C in a humidified incubator with 5% CO2.
The viability of SH-SY5Y cells was evaluated based on the reduction of the yellow tetrazolium salt (3-(4,5-dimethylthiazol-2-yl)-2,5-diphenyltetrazolium bromide or MTT) to the purple formazan crystals by the metabolically active cells. The cells were seeded onto the 96-well plates at the density of 10,000 cells/well, grown overnight and treated with astragaloside IV at 6, 12.5 or 25 μg/mL. Following 24 h of incubation the medium was replaced with 200 µL of fresh medium containing MTT (final concentration 0.5 mg/mL) and the cells were incubated for a further 4 h at 37 °C. The precipitated formazan was dissolved in 100 µL DMSO and the absorbance of the samples was measured at λ = 540 nm. The mean absorbance measured for the control cells, treated with the solvent (saline), was set to 100% cellular viability and used to calculate the percent of viable cells under each experimental condition.

[5] = post-mortem brain tissues of mice; cited from earlier work
[6] = test system: zebrafish (Danio rerio) embryos; experiment: Zebrafish embryo acute toxicity test (OECD Test No. 236); format: in vivo
Method: Zebrafish (Danio rerio) embryos were obtained from the Experimental Medicine Centre, Medical University of Lublin, Poland. The animals were kept in an incubator under the appropriate environmental conditions (28.5 ± 0.5 °C, light/dark cycle: 14/10 h) up to 96 h post-fertilization (hpf). For the studies, the National Institutes of Health Guide for the Care and Use of Laboratory Animals (Directive 2010/63/EU) was applied. Thus, for the yolk-feeding larvae up to 120 hpf ethical approval is not required. Nevertheless, all attempts were made to minimize the number of animals and their suffering. Immediately after the experiments, the larval zebrafish were euthanized in […] tricaine solution.
In order to assess the effect of astragaloside IV on the developing organism, the zebrafish embryo acute toxicity test was carried out according to the Organization for Economic Cooperation and Development recommendation for the testing of chemicals (Test No. 236) as described previously. One hour after fertilization, viable, perfectly spherical and completely transparent embryos were selected and transferred to 12 well plates (Sarstedt, Germany). The embryos were randomly divided into control and experimental groups. The embryos were kept in each well until the appropriate stage of development was reached of 96 hpf. Two batches of embryos (3 wells per batch, n = 5–6 per well) were kept in 3 mL of zebrafish E3 medium without treatment, i.e., the control group and that was supplemented with 25 µg/mL of astragaloside IV, i.e., the experimental group. Mortality was assessed after 23, 47, 71 and 95 h of exposition. Hatchability was evaluated after 71 and 95 h of exposition. Morphological abnormalities were scored after 95 h of exposition: heartbeat, heart oedema, yolk sac utilization/necrosis, jaw development, eye size, body axis and haemorrhage. Furthermore, to assess muscle function and performance, the touch-evoked response was performed by slight touching of the tail with metal tweezers. The criteria for the larval response were as follows: absent, decreased and normal, as described in detail in our previous paper.
The obtained data were pooled together. The Chi-squared test or the Fisher’s exact test was used for statistical purposes.

Sequence of acetylcholinesterase (AChE) enzyme (P22303 32-614): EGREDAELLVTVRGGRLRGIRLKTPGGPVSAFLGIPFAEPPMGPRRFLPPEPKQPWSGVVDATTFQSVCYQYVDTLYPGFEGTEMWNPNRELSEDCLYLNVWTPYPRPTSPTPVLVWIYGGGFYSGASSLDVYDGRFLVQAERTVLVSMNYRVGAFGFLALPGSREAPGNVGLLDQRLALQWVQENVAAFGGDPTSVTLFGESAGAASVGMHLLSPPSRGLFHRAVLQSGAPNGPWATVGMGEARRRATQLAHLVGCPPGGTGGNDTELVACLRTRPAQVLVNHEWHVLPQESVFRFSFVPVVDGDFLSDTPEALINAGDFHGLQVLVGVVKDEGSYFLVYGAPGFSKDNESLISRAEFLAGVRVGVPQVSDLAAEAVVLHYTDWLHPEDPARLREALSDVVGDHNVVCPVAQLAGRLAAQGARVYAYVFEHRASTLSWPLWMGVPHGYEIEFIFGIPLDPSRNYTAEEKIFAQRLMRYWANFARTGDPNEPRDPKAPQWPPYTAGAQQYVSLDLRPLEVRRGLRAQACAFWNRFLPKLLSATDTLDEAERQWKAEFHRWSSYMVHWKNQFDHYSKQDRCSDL

For CC(=O)O[C@H]1[C@H](O[C@H]2CC[C@]34C[C@]35CC[C@]3(C)[C@@H]([C@@]6(C)CC[C@@H](C(C)(C)O)O6)[C@@H](O)C[C@@]3(C)[C@@H]5C[C@H](O[C@@H]3O[C@H](CO)[C@@H](O)[C@H](O)[C@H]3O)[C@H]4C2(C)C)OC[C@@H](O)[C@@H]1O [A II, Astragaloside II], which IC50 [1] is on record?
Its IC50 is 0.00488 mg.

And the “s (slope of Soczewiński-Wachtmeister equation)” value [2]?
Its value is 6.570.

What about the logkw [2] of the same molecule?
Its logkw is 3.209.

And the “s (slope of Soczewiński-Wachtmeister equation)” value [3]?
Its value is 4.715.

What about the logkw [3] of the same molecule?
Its logkw is 2.104.

What does the source list for CC(C)(O)[C@@H]1CC[C@](C)([C@H]2[C@@H](O)C[C@@]3(C)[C@@H]4C[C@H](O[C@@H]5O[C@H](CO)[C@@H](O)[C@H](O)[C@H]5O)[C@H]5C(C)(C)[C@@H](O[C@@H]6OC[C@@H](O)[C@H](O)[C@H]6O)CC[C@@]56C[C@@]46CC[C@]23C)O1 [A IV, Astragaloside IV]?
cell viability versus control group (saline) ([4]; 25 μg/mL): slightly lower; cell viability versus control group (saline) ([4]; 6 and 12.5 μg/mL): slightly higher; decrease in cellular SH-SY5Y viability ([4]; all analysed conditions (6, 12.5, 25 μg/mL)): no significant decrease; IC50 [1]: 0.00316 mg; logBB [5]: 0.49; s (slope of Soczewiński-Wachtmeister equation) [2]: 6.000; logkw [2]: 2.668; s (slope of Soczewiński-Wachtmeister equation) [3]: 3.965; logkw [3]: 1.727; mortality rate versus control ([6]; 25 µg/mL, 1, 2, 3 and 4 dpf, p > 0.05): no difference; larval hatchability ([6]; 25 µg/mL, 3- and 4-day-old fish, p > 0.05): did not affect; scored morphological abnormalities versus control ([6]; 25 µg/mL, 95 h exposition): no difference; touch-evoked response ([6]; 25 µg/mL, 95 h exposition): normal

For CC(=O)OC1C(O)COC(OC2CCC34CC35CCC3(C)C(C6(C)CCC(C(C)(C)O)O6)C(O)CC3(C)C5CC(OC3OC(CO)C(O)C(O)C3O)C4C2(C)C)C1OC(C)=O (stereo not drawn) [A I, Astragaloside I], which “s (slope of Soczewiński-Wachtmeister equation)” value [2] is on record?
Its value is 5.590.

What about the logkw [2] of the same molecule?
The logkw was 3.234.

What about the “s (slope of Soczewiński-Wachtmeister equation)” value [3] of the same molecule?
The value was 6.040.

What about the logkw [3] of the same molecule?
The logkw was 2.713.

For CC(C)(O)[C@@H]1CC[C@](C)([C@H]2[C@@H](O)C[C@@]3(C)[C@@H]4C[C@H](O)[C@H]5C(C)(C)[C@@H](O[C@@H]6OC[C@@H](O)[C@H](O)[C@H]6O[C@@H]6O[C@H](CO)[C@@H](O)[C@H](O)[C@H]6O)CC[C@@]56C[C@@]46CC[C@]23C)O1 [A III, Astragaloside III], which IC50 [1] is on record?
Its IC50 is 0.0033 mg.

And the “s (slope of Soczewiński-Wachtmeister equation)” value [2]?
Its value is 5.681.

What about the logkw [2] of the same molecule?
The logkw was 2.627.

And the “s (slope of Soczewiński-Wachtmeister equation)” value [3]?
The value was 4.165.

And the logkw [3]?
The logkw was 1.807.
